Results as given in the NIST ThermoML archive (doi:10.1016/j.jct.2016.03.026).

Assay: xn = mol fraction of the nth substance listed
Details: 263.15 K, Fluid (supercritical or subcritical phases), Vibrating tube method, x1 = 0.97

O=C=O [carbon dioxide] + CO
Details | mass density [kg/m3]
13625 kPa | 1031.69
13650 kPa | 1031.77
13675 kPa | 1031.94
13700 kPa | 1031.97
13725 kPa | 1032.1
13750 kPa | 1032.18
13775 kPa | 1032.26
13800 kPa | 1032.34
13825 kPa | 1032.42
13850 kPa | 1032.53
13875 kPa | 1032.61
13900 kPa | 1032.75
13925 kPa | 1032.83
13950 kPa | 1032.91
13975 kPa | 1032.99
14000 kPa | 1033.08
14025 kPa | 1033.16
14050 kPa | 1033.24
14075 kPa | 1033.38
14100 kPa | 1033.48
14125 kPa | 1033.57
14150 kPa | 1033.65
14175 kPa | 1033.73
14200 kPa | 1033.81
14225 kPa | 1033.9
14250 kPa | 1033.97
14275 kPa | 1034.13
14300 kPa | 1034.22
14325 kPa | 1034.3
14350 kPa | 1034.38
14375 kPa | 1034.46
14400 kPa | 1034.54
14425 kPa | 1034.62
14450 kPa | 1034.7
14475 kPa | 1034.86
14500 kPa | 1034.95
14525 kPa | 1035.03
14550 kPa | 1035.11
14575 kPa | 1035.19
14600 kPa | 1035.28
14625 kPa | 1035.36
14650 kPa | 1035.44
14675 kPa | 1035.52
14700 kPa | 1035.62
14725 kPa | 1035.77
14750 kPa | 1035.83
14775 kPa | 1035.93
14800 kPa | 1036.01
14825 kPa | 1036.09
14850 kPa | 1036.17
14875 kPa | 1036.25
14900 kPa | 1036.34
14925 kPa | 1036.42
14950 kPa | 1036.51
14975 kPa | 1036.63
15000 kPa | 1036.74
15025 kPa | 1036.78
15050 kPa | 1036.9
15075 kPa | 1036.96
15100 kPa | 1037.07
15125 kPa | 1037.15
15150 kPa | 1037.23
15175 kPa | 1037.31
15200 kPa | 1037.39
15225 kPa | 1037.5
15250 kPa | 1037.56
15275 kPa | 1037.66
15300 kPa | 1037.72
15325 kPa | 1037.8
15350 kPa | 1037.91
15375 kPa | 1038.01
15400 kPa | 1038.07
15425 kPa | 1038.19
15450 kPa | 1038.28
15475 kPa | 1038.37
15500 kPa | 1038.45
15525 kPa | 1038.53
15550 kPa | 1038.61
15575 kPa | 1038.7
15600 kPa | 1038.78
15625 kPa | 1038.86
15650 kPa | 1038.94
15675 kPa | 1039.02
15700 kPa | 1039.1
15725 kPa | 1039.19
15750 kPa | 1039.26
15775 kPa | 1039.35
15800 kPa | 1039.43
15825 kPa | 1039.51
15850 kPa | 1039.61
15875 kPa | 1039.7
15900 kPa | 1039.79
15925 kPa | 1039.88
15950 kPa | 1039.97
15975 kPa | 1040.06
16000 kPa | 1040.16
16025 kPa | 1040.2
16050 kPa | 1040.31
16075 kPa | 1040.4
16100 kPa | 1040.49
16125 kPa | 1040.57
16150 kPa | 1040.65
16175 kPa | 1040.73
16200 kPa | 1040.81
16225 kPa | 1040.89
16250 kPa | 1040.97
16275 kPa | 1041.05
16300 kPa | 1041.16
16325 kPa | 1041.25
16350 kPa | 1041.32
16375 kPa | 1041.38
16400 kPa | 1041.46
16425 kPa | 1041.59
16450 kPa | 1041.66
16475 kPa | 1041.72
16500 kPa | 1041.79
16525 kPa | 1041.91
16550 kPa | 1041.95
16575 kPa | 1042.08
16600 kPa | 1042.19
16625 kPa | 1042.27
16650 kPa | 1042.33
16675 kPa | 1042.38
16700 kPa | 1042.51
16725 kPa | 1042.57
16750 kPa | 1042.68
16775 kPa | 1042.75
16800 kPa | 1042.82
16825 kPa | 1042.91
16850 kPa | 1043.01
16875 kPa | 1043.08
16900 kPa | 1043.17
16925 kPa | 1043.24
16950 kPa | 1043.33
16975 kPa | 1043.4
17000 kPa | 1043.49
17025 kPa | 1043.57
17050 kPa | 1043.64
17075 kPa | 1043.74
17100 kPa | 1043.82
17125 kPa | 1043.9
17150 kPa | 1043.98
17175 kPa | 1044.06
17200 kPa | 1044.14
17225 kPa | 1044.22
17250 kPa | 1044.31
17275 kPa | 1044.39
17300 kPa | 1044.44
17325 kPa | 1044.55
17350 kPa | 1044.63
17375 kPa | 1044.71
17400 kPa | 1044.79
17425 kPa | 1044.87
17450 kPa | 1044.94
17475 kPa | 1045.04
17500 kPa | 1045.12
17525 kPa | 1045.2
17550 kPa | 1045.28
17575 kPa | 1045.33
17600 kPa | 1045.44
17625 kPa | 1045.52
17650 kPa | 1045.61
17675 kPa | 1045.69
17700 kPa | 1045.77
17725 kPa | 1045.81
17750 kPa | 1045.89
17775 kPa | 1045.97
17800 kPa | 1046.04
17825 kPa | 1046.11
17850 kPa | 1046.26
17875 kPa | 1046.32
17900 kPa | 1046.37
17925 kPa | 1046.44
17950 kPa | 1046.51
17975 kPa | 1046.58
18000 kPa | 1046.66
18025 kPa | 1046.79
18050 kPa | 1046.85
18075 kPa | 1046.9
18100 kPa | 1046.98
18125 kPa | 1047.07
18150 kPa | 1047.15
18175 kPa | 1047.23
18200 kPa | 1047.31
18225 kPa | 1047.37
18250 kPa | 1047.47
18275 kPa | 1047.55
18300 kPa | 1047.62
18325 kPa | 1047.69
18350 kPa | 1047.75
18375 kPa | 1047.82
18400 kPa | 1047.88
18425 kPa | 1047.96
18450 kPa | 1048.04
18475 kPa | 1048.11
18500 kPa | 1048.2
18525 kPa | 1048.28
18550 kPa | 1048.31
18575 kPa | 1048.43
18600 kPa | 1048.53
18625 kPa | 1048.58
18650 kPa | 1048.64
18675 kPa | 1048.74
18700 kPa | 1048.83
18725 kPa | 1048.85
18750 kPa | 1048.93
18775 kPa | 1048.93
18800 kPa | 1049.06
18825 kPa | 1049.09
18850 kPa | 1049.34
18875 kPa | 1049.42
18900 kPa | 1049.5
18925 kPa | 1049.58
18950 kPa | 1049.66
18975 kPa | 1049.74
19000 kPa | 1049.82
19025 kPa | 1049.91
19050 kPa | 1049.99
19075 kPa | 1050.07
19100 kPa | 1050.15
19125 kPa | 1050.23
19150 kPa | 1050.31
19175 kPa | 1050.39
19200 kPa | 1050.47
19225 kPa | 1050.56
19250 kPa | 1050.63
19275 kPa | 1050.72
19300 kPa | 1050.8
19325 kPa | 1050.88
19350 kPa | 1050.96
19375 kPa | 1051.04
19400 kPa | 1051.12
19425 kPa | 1051.21
19450 kPa | 1051.29
19475 kPa | 1051.35
19500 kPa | 1051.45
19525 kPa | 1051.53
19550 kPa | 1051.58
19575 kPa | 1051.69
19600 kPa | 1051.77
19625 kPa | 1051.83
19650 kPa | 1051.89
19675 kPa | 1052.02
